Usually IC50 stands for the concentration at which inhibition is half-maximal.

Structures can show the parent of a compound that is named as a salt.

Common to all, as to settings: Table 1
One experiment concerns the target PKC-β1 (Homo sapiens, UniProt P05771). The experiment in a line: PKC Enzyme Assay, beta-1 isozyme. Type of experiment: biochemical. How it is done: (§1) PKC enzymes=alpha, beta I, beta II, gamma, delta, epsilon, eta and zeta.
(§2) Assay components in a total volume of 250 μL are as follows:
(§3) For all the enzymes either histone type HL (Worthington) or myelin basic protein is used as substrate. The assay is started by addition of protein kinase C enzyme incubated at 30° C. for 10 minutes and stopped by adding 0.5 mL of cold trichloroacetic acid (Amresco) followed by 100 μL of 1 mg/mL bovine serum albumin (Sigma, St. Louis, Mo.). The precipitate is collected by vacuum filtration on glass fiber filters employing a TOMTEC™ filtration system and quantified by counting in a beta scintillation counter.

For a further experiment, the target named is PKC-β2 (Homo sapiens, UniProt P05771). Description: PKC Enzyme Assay, beta-2 isozyme. The class given is biochemical. As for the experimental part: as §1, §2, §3
The target in a further experiment is T1, src (Homo sapiens, UniProt P12931).
T1 construct: purchased Onogene Science, Inc. PK02 and PK03
The experiment in a line: Protein Tyrosine Kinase Assay (src). Type of experiment: biochemical. How it is done:
Protein Tyrosine Kinase Assay (src)
The Assay components are the following:
4 μL DMSO or DMSO/inhibitor

The target of experiment [1] is T2, cAMP-dependent kinase catalytic subunit (Bos taurus, UniProt P00517).
T2 construct: purchased Sigma, St. Louis, Mo; host or cells: bovine heart
The experiment in a line: cAMP-Dependent protein Kinase Catalytic Subunit Assay. The class given is biochemical, bovine. As for the experimental part:
cAMP-Dependent protein Kinase Catalytic Subunit Assay (PEA) The Assay components are in a total volume of 250 μL: 20 mM HEPES (Sigma, St. Louis, Mo.) buffer pH 7.5, 200 μg/mL histone type HL (Worthington), 10 mM magnesium chloride (Sigma, St. […] The reaction is initiated by addition of bovine heart cAMP-dependent kinase catalytic subunit (Sigma, St. Louis, Mo.), incubated to 30° C. for 10 minutes and stopped by adding 0.5 mL ice cold Trichloroacetic acid (Amresco) followed by 100 μL of 1 mg/mL bovine serum albumin (Sigma). The precipitate is collected by vacuum filtrated on glass fiber filters employing a TOMTEC™ and quantified by counting in a beta scintillation counter. This assay is done identical to the protein kinase C (PKC) enzyme assay except that no phospholipids or diacylglycerol are employed in the assay and the histone substrate is specific for the cAMP-dependent catalytic subunit enzyme.

The next experiment deals with T3, casein protein kinase II (Rattus norvegicus, UniProt P19139).
T3 construct: isolated from rat brain homogenate; from tissue; host or cells: rat brain homogenate
The experiment in a line: Casein Protein Kinase II Assay (CK-II). The class given is biochemical. How it is done:
Casein Protein Kinase II Assay (CK-II)
The Casein Protein Kinase II Assay is described in Neurochem. […] The assay components are in a total volume of 250 μL: 20 mM Tris-HCl, pH 7.5, 5 mM sodium fluoride, 50 mg/mL Casein (Sigma, St. Louis, Mo.), 10 mM magnesium chloride (Sigma, St. Louis, Mo.), 10 μL DMSO or DMSO/inhibitor and 30 μm (gamma-32P) ATP (DuPont). Initiation of the reaction is performed by addition of casein protein kinase II (isolated from rat brain homogenate), incubated at room temperature for 10 minutes and stopped by the addition of 0.5 mL ice cold Trichloroacetic acid (Amresco) followed by 100 μL of 1 mg/mL bovine serum albumin (Sigma, St. Louis, Mo.). The precipitate is collected by vacuum filtration on glass fiber filters and quantified by counting in a beta scintillation counter.
Assay components in order of addition
10 μL or DMSO or DMSO/inhibitor
25 μL of AT32P in 300 μM magnesium chloride
40 μL of enzyme (undiluted)
Buffer prepared as follows:
(Final volume=3.5 mL: amount of 20 assays)

The next experiment addresses PKC-α (Homo sapiens, UniProt P17252). Description: PKC Enzyme Assay, alpha isozyme. The class given is biochemical. How it is done: as §1, §2, §3
In experiment [2] the target is calcium calmodulin dependent protein kinase. Description: Calcium Calmodulin Dependent Protein Kinase Assay (CAM). The class given is biochemical, rat. How it is done: Calcium Calmodulin Dependent Protein Kinase Assay (CAM)
The reaction is initiated by the addition of calcium calmodulin dependent protein kinase (isolated from rat brain homogenate), incubated at room temperature for 10 minutes and stopped by adding 0.5 mL ice cold trichloroacetic acid (Amresco) followed by 100 μL of 1 mg/mL bovine serum albumin (Sigma, St. Louis, Mo.). The precipitate is collected by vacuum filtration on glass fiber filters and quantified by counting in a beta scintillation counter.
25 μL calmodulin (250 μg/mL)
10 μL DMSO or DMSO/inhibitor

T3 sequence (P19139 whole entry): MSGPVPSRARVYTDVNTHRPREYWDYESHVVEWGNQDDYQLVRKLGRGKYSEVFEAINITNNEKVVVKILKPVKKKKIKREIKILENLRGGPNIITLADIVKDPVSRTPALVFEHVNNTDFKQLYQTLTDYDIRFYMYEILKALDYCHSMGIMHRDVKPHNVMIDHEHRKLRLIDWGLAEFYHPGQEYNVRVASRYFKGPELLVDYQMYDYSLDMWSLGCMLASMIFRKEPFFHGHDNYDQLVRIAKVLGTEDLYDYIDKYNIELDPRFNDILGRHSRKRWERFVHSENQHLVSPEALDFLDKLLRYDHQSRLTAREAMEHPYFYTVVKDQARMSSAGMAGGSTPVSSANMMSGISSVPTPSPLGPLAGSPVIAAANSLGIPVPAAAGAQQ
T3 sequence (P67874 2-215 partner limits assumed): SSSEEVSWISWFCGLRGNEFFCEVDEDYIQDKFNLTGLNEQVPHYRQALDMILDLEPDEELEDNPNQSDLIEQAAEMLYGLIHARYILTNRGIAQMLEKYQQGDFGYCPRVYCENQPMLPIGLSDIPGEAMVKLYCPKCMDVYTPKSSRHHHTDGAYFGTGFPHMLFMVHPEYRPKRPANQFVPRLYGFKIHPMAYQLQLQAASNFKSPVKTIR
Sequence of PKC-β1 (P05771 whole entry): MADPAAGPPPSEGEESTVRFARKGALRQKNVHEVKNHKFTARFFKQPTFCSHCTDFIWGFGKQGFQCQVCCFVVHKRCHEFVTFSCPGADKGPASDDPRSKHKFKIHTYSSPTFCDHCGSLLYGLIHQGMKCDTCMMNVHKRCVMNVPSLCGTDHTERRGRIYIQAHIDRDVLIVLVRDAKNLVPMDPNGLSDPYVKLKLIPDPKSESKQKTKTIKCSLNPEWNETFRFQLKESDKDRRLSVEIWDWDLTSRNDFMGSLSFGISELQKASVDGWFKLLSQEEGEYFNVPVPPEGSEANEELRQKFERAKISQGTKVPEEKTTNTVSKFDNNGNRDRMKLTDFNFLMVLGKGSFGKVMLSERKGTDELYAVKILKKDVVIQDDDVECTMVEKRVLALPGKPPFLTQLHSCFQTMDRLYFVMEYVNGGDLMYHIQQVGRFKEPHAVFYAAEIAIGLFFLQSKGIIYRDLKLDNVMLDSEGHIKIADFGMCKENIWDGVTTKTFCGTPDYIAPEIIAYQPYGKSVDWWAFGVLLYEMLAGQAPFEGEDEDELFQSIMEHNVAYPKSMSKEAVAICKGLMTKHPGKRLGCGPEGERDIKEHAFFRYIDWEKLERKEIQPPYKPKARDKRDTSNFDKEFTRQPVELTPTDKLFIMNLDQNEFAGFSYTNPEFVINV
T1 sequence (P12931 whole entry, species assumed): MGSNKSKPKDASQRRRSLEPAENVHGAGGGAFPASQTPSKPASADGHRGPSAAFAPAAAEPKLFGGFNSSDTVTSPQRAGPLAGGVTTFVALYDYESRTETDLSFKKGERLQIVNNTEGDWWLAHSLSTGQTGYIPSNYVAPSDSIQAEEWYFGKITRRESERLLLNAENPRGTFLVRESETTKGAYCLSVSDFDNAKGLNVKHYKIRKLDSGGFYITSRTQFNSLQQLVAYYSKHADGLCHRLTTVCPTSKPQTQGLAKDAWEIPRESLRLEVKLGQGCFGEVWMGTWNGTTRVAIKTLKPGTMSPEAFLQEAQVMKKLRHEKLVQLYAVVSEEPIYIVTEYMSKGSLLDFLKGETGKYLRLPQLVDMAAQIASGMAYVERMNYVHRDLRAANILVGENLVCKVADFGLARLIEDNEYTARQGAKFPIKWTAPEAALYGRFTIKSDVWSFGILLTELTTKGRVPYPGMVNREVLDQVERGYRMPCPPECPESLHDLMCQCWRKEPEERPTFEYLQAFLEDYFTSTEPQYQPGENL
Sequence of PKC-β2 (P05771 1-673 isoform P05771-2): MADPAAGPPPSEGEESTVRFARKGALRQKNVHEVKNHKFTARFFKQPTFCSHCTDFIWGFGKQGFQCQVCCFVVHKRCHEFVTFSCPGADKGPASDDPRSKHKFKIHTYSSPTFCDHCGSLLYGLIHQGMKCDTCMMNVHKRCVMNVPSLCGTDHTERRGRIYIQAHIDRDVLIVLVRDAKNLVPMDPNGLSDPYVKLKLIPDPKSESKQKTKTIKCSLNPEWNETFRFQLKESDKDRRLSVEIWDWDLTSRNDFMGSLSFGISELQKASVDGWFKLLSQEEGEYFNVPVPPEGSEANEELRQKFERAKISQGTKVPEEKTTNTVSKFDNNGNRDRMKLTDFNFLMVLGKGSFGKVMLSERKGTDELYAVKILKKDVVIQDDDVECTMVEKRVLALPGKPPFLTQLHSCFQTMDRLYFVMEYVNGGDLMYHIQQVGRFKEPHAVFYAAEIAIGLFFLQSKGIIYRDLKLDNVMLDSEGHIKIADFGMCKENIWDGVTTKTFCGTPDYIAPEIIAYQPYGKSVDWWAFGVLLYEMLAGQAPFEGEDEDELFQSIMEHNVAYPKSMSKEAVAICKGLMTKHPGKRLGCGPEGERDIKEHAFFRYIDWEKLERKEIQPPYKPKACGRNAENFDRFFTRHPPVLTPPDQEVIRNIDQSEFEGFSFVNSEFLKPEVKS

`O=C1NC(=O)C2=C1c1cn(c3ccccc13)CCCC(NCc1ccccc1)CCCn1cc2c2ccccc21` [Example 47]: the IC50 against PKC-β1 is 0.07 µM; at PKC-β2, 0.06 µM; on src it was greater than 125 µM; in experiment [1], greater than 100 µM; on casein protein kinase II, greater than 100 µM; at PKC-α, 2 µM. In experiment [2], the IC50 amounted to 70 µM.

`CN(C)C[C@@H]1CCCn2cc(c3ccccc32)C2=C(C(=O)NC2=O)c2cn(c3ccccc23)CC1` [Example 40r, (R)-3,4-[(N,N'-1,1'-(3"-(N,N-dimethylamino)methylene)-hexane)-bis-(3,3'-indolyl)]-1H-pyrrole-2,5-dione hydrochloride salt]: the IC50 against src was 71 µM; in experiment [1], greater than 100 µM; against casein protein kinase II, greater than 100 µM; at PKC-α it was 0.3 µM; in experiment [2] it was 8 µM.

On to `O=C1NC(=O)C2=C1c1cn(c3ccccc13)CCCCCCCn1cc2c2ccccc21` [Example 42], for which the concentration for half-maximal inhibition (IC50) is 0.5 µM against PKC-β1; 0.6 µM on PKC-β2; greater than 100 µM against src; greater than 100 µM in experiment [1]; greater than 100 µM on casein protein kinase II; greater than 100 µM against PKC-α. In addition, in experiment [2], the IC50 is greater than 100 µM.

As to `CC(=O)OCC1CCCn2cc(c3ccccc32)C2=C(C(=O)NC2=O)c2cn(c3ccccc23)CC1` (stereo not shown) [Example 38, 3,4-[(N,N'-1,1'-(3"-(acetoxy)methylene)-hexane)-bis-(3,3'-indolyl)]-1H-pyrrole-2,5-dione], the half-inhibitory concentration (IC50) on PKC-β1 was 0.2 µM; at PKC-β2, 0.1 µM; against src it was greater than 100 µM; in experiment [1], greater than 100 µM; against casein protein kinase II, greater than 100 µM; against PKC-α, 4 µM. Besides, the IC50 in experiment [2] turned out to be 9 µM.

In the case of `O=C1NC(=O)C2=C1c1cn(c3ccccc13)CCCOC(CO)CCn1cc2c2ccccc21` (stereo not shown) [Example 2, 3,4-[(N,N'-1,1')-((3"-propoxy)-3'"(O)-4'"(hydroxy)butane)-bis-(3,3'-indolyl)]-1(H)-pyrrole-2,5-dione], the 50% inhibitory concentration (IC50) on PKC-β1 was 0.4 µM; at PKC-β2 it was 0.2 µM; against src it was greater than 100 µM; in experiment [1], greater than 100 µM; against casein protein kinase II, greater than 100 µM; on PKC-α, 4 µM. Moreover, the IC50 in experiment [2] was greater than 100 µM.

As for `O=C1NC(=O)C2=C1c1cn(c3ccccc13)CCCC(Cn1ccnc1)CCn1cc2c2ccccc21` (stereo not shown) [Example 41, 3,4-[(N,N'-1,1'-(3"-(N-imidazole)methylene)-hexane)-bis-(3,3'-indolyl)]-1H-pyrrole-2,5-dione], the IC50 on src was 91 µM; against casein protein kinase II, greater than 100 µM; at PKC-α, 0.3 µM; in experiment [2], 3 µM.

For the compound `O=C1NC(=O)C2=C1c1cn(c3ccccc13)CCCC(COCc1ccccc1)CCn1cc2c2ccccc21` (racemic) [Example 30, (±)-3,4-[(N,N'-1,1'-(3"-(benzyloxymethylene)hexane)-bis-(3,3'-indolyl)]-1H-pyrrole-2,5-dione], the concentration for half-maximal inhibition (IC50) was 1 µM on PKC-β1; 2 µM against PKC-β2; greater than 100 µM against src; greater than 100 µM in experiment [1]; greater than 10 µM against casein protein kinase II; greater than 100 µM against PKC-α. Also, the concentration for half-maximal inhibition (IC50) in experiment [2] is greater than 10 µM.

Regarding `O=C1NC(=O)C2=C1c1cn(c3ccccc13)CCCCCCn1cc2c2ccccc21` [Example 28, 3,4-[(N,N'-1,1'-hexane)-bis-(3,3'-indolyl)]-1H-pyrrole-2,5-dione], the IC50 was 0.07 µM at PKC-β1; 0.08 µM on PKC-β2; greater than 100 µM at src; greater than 100 µM at casein protein kinase II; 1 µM at PKC-α; 2 µM in experiment [2].

In the case of `O=C1NC(=O)C2=C1c1cn(c3ccccc13)CCCC(CN(Cc1ccccc1)Cc1ccccc1)CCn1cc2c2ccccc21` (stereo not shown) [Example 35, 3,4-[(N,N'-1,1 '-(3"-(N,N-dibenzylamino)methylene)-hexane)-bis-(3,3'-indolyl)]-1H-pyrrole-2,5-dione trifluoroacetate salt], the IC50 is 3 µM on PKC-β1; 2 µM against PKC-β2; greater than 100 µM at src; greater than 100 µM on casein protein kinase II; 9 µM against PKC-α; 82 µM in experiment [2].

`O=C1NC(=O)C2=C1c1cn(c3ccccc13)CCO[C@H](CN1CCCC1)CCn1cc2c2ccccc21` [Example 20s]: the half-maximal inhibitory concentration (IC50) was 16 µM against src; greater than 100 µM in experiment [1]; greater than 100 µM against casein protein kinase II; 3 µM against PKC-α; 6.7 µM in experiment [2].

For `CN(C)CC1CCCn2cc(c3ccccc32)C2=C(C(=O)NC2=O)c2cn(c3ccccc23)CC1` (stereo not shown) [Example 40], the IC50 at src is 4.4 µM; in experiment [1], greater than 100 µM; at casein protein kinase II, greater than 100 µM; against PKC-α it was 0.6 µM; in experiment [2], 5 µM.

Turning to `NCC1CCn2cc(c3ccccc32)C2=C(C(=O)NC2=O)c2cn(c3ccccc23)CCO1` (stereo not shown) [Example 4, 3,4-[(N,N'-1,1'-((2'"-ethoxy)-3'"(O)-4'"-(amino)-butane)-bis-(3,3'-indolyl)]-1(H)-pyrrole-2,5-dione trifluoroacetate salt], the IC50 against PKC-β1 is 0.02 µM; against PKC-β2 it was 0.008 µM; against src it was 37 µM; at casein protein kinase II, greater than 100 µM; against PKC-α, 0.3 µM; in experiment [2], 3 µM.

Regarding `O=C1NC(=O)C2=C1c1cn(c3ccccc13)CCO[C@@H](CNS(=O)(=O)c1ccccc1)CCn1cc2c2ccccc21` [Example 21r], the IC50 against PKC-β1 is 0.18 µM; at PKC-β2, 0.05 µM; against src, greater than 100 µM; in experiment [1], greater than 100 µM; against casein protein kinase II, greater than 100 µM; on PKC-α, 68 µM.

In the case of `O=C1NC(=O)C2=C1c1cn(c3ccccc13)CCCCCn1cc2c2ccccc21` [Example 43], the concentration for half-maximal inhibition (IC50) at PKC-β1 is 0.04 µM; on PKC-β2, 0.03 µM; at src, greater than 100 µM; against casein protein kinase II it was greater than 100 µM; against PKC-α, 0.4 µM; in experiment [2], 0.6 µM.

For `NCC1CCCn2cc(c3ccccc32)C2=C(C(=O)NC2=O)c2cn(c3ccccc23)CC1` (stereo not shown) [Example 33, 3,4-[(N,N'-1,1'-(3"-aminomethylene)-hexane)-bis-(3,3'-indolyl)]-1H-pyrrole-2,5-dione], the concentration for half-maximal inhibition (IC50) against PKC-β1 is 0.05 µM; against PKC-β2 it was 0.04 µM; on src it was 61 µM; at PKC-α, 0.4 µM; in experiment [2] it was 0.6 µM.

Consider `O=C1NC(=O)C2=C1c1cn(c3ccccc13)CCCC(CNCc1ccccc1)CCn1cc2c2ccccc21` (stereo not shown) [Example 34, 3,4-[(N,N'-1,1'-(3"-(N-benzylamino)methylene)-hexane)-bis-(3,3'-indolyl)]-1H-pyrrole-2,5-dione trifluoroacetate salt], for which the half-inhibitory concentration (IC50) on PKC-β1 was 0.1 µM; against PKC-β2, 0.1 µM; against src it was greater than 100 µM; on casein protein kinase II, greater than 100 µM; against PKC-α, 1 µM; in experiment [2], 4 µM.

For the compound `O=C1NC(=O)C2=C1c1cn(c3ccccc13)CCO[C@@H](CN1CCCC1)CCn1cc2c2ccccc21` [Example 20r], the IC50 against src is 74 µM; in experiment [1], greater than 100 µM; against casein protein kinase II, greater than 100 µM; against PKC-α, 0.89 µM; in experiment [2], 7.3 µM.
